Reference: the NIST ThermoML archive (doi:10.1016/j.tca.2005.01.064)

Experiments:
[1] = 308.15 K; 101.33 kPa; Liquid; Vibrating tube method
[2] = excess molar enthalpy (molar enthalpy of mixing); xn = mol fraction of the nth substance listed; conditions: 308.15 K, 101.33 kPa, Liquid, Flow calorimetry

OCCOCCO [diethylene glycol]
Conditions | mass density [kg/m3]
[1] | 1105.65

CCO [ethanol]
Conditions | mass density [kg/m3]
[1] | 776.41

OCCO [1,2-ethanediol] + CCO
[2]
Conditions | excess molar enthalpy [kcal/mol]
x1 = 0.0719 | 0.0526
x1 = 0.1341 | 0.0833
x1 = 0.1886 | 0.103
x1 = 0.2365 | 0.115
x1 = 0.3173 | 0.126
x1 = 0.3826 | 0.131
x1 = 0.4817 | 0.131
x1 = 0.5533 | 0.125
x1 = 0.6502 | 0.115
x1 = 0.7361 | 0.099
x1 = 0.788 | 0.0846
x1 = 0.8479 | 0.0684
x1 = 0.8815 | 0.0565
x1 = 0.9177 | 0.0413
x1 = 0.9371 | 0.0333
x1 = 0.9571 | 0.0229
x1 = 0.9781 | 0.012

OCCOCCOCCO [triethylene glycol] + CCO
[2]
Conditions | excess molar enthalpy [kcal/mol]
x1 = 0.0313 | 0.0319
x1 = 0.0606 | 0.0563
x1 = 0.0883 | 0.077
x1 = 0.1143 | 0.0905
x1 = 0.1623 | 0.111
x1 = 0.2047 | 0.125
x1 = 0.2792 | 0.141
x1 = 0.3405 | 0.145
x1 = 0.4365 | 0.15
x1 = 0.5376 | 0.146
x1 = 0.6078 | 0.145
x1 = 0.6992 | 0.132
x1 = 0.756 | 0.117
x1 = 0.823 | 0.0973
x1 = 0.8613 | 0.0786
x1 = 0.9029 | 0.0595
x1 = 0.949 | 0.0324

OCCOCCOCCO [triethylene glycol]
Conditions | mass density [kg/m3]
[1] | 1112.09

OCCOCCO [diethylene glycol] + CCO
[2]
Conditions | excess molar enthalpy [kcal/mol]
x1 = 0.0434 | 0.0185
x1 = 0.0833 | 0.0319
x1 = 0.1199 | 0.0422
x1 = 0.1537 | 0.0483
x1 = 0.2142 | 0.0582
x1 = 0.2663 | 0.063
x1 = 0.3528 | 0.0668
x1 = 0.4208 | 0.0668
x1 = 0.5216 | 0.0644
x1 = 0.6206 | 0.0565
x1 = 0.6856 | 0.0507
x1 = 0.7658 | 0.0417
x1 = 0.8135 | 0.0353
x1 = 0.8674 | 0.0262
x1 = 0.8973 | 0.0217
x1 = 0.929 | 0.0152
x1 = 0.9632 | 0.00786
